± gives the expanded uncertainty stated by the source.
Settings: Liquid, Vibrating tube method

Cc1ccc(C)s1 [2,5-dimethylthiophene]
Settings	mass density [kg/m3]
283.15 K, 100 kPa	995.51 ± 0.5
283.15 K, 2000 kPa	996.96 ± 0.5
283.15 K, 5000 kPa	999.21 ± 0.5
283.15 K, 7000 kPa	1000.68 ± 0.5
283.15 K, 10000 kPa	1002.83 ± 0.5
283.15 K, 15000 kPa	1006.35 ± 0.5
283.15 K, 20000 kPa	1009.74 ± 0.5
283.15 K, 25000 kPa	1013.04 ± 0.5
283.15 K, 30000 kPa	1016.24 ± 0.5
283.15 K, 35000 kPa	1019.33 ± 0.5
283.15 K, 40000 kPa	1022.34 ± 0.51
283.15 K, 45000 kPa	1025.27 ± 0.51
283.15 K, 50000 kPa	1028.12 ± 0.51
283.15 K, 55000 kPa	1030.9 ± 0.51
283.15 K, 60000 kPa	1033.6 ± 0.51
283.15 K, 65000 kPa	1036.24 ± 0.52
288.15 K, 100 kPa	990.41 ± 0.5
288.15 K, 2000 kPa	991.9 ± 0.5
288.15 K, 5000 kPa	994.21 ± 0.5
288.15 K, 7000 kPa	995.72 ± 0.5
288.15 K, 10000 kPa	997.94 ± 0.5
288.15 K, 15000 kPa	1001.53 ± 0.5
288.15 K, 20000 kPa	1005.01 ± 0.5
288.15 K, 25000 kPa	1008.38 ± 0.5
288.15 K, 30000 kPa	1011.66 ± 0.5
288.15 K, 35000 kPa	1014.81 ± 0.5
288.15 K, 40000 kPa	1017.89 ± 0.5
288.15 K, 45000 kPa	1020.88 ± 0.51
288.15 K, 50000 kPa	1023.78 ± 0.51
288.15 K, 55000 kPa	1026.62 ± 0.51
288.15 K, 60000 kPa	1029.38 ± 0.51
288.15 K, 65000 kPa	1032.06 ± 0.51
293.15 K, 100 kPa	985.3 ± 0.5
293.15 K, 2000 kPa	986.82 ± 0.5
293.15 K, 5000 kPa	989.21 ± 0.5
293.15 K, 7000 kPa	990.74 ± 0.5
293.15 K, 10000 kPa	993.02 ± 0.5
293.15 K, 15000 kPa	996.71 ± 0.5
293.15 K, 20000 kPa	1000.28 ± 0.5
293.15 K, 25000 kPa	1003.72 ± 0.5
293.15 K, 30000 kPa	1007.07 ± 0.5
293.15 K, 35000 kPa	1010.31 ± 0.5
293.15 K, 40000 kPa	1013.45 ± 0.5
293.15 K, 45000 kPa	1016.49 ± 0.5
293.15 K, 50000 kPa	1019.47 ± 0.51
293.15 K, 55000 kPa	1022.35 ± 0.51
293.15 K, 60000 kPa	1025.15 ± 0.51
293.15 K, 65000 kPa	1027.88 ± 0.51
298.15 K, 100 kPa	980.2 ± 0.5
298.15 K, 2000 kPa	981.78 ± 0.5
298.15 K, 5000 kPa	984.2 ± 0.5
298.15 K, 7000 kPa	985.8 ± 0.5
298.15 K, 10000 kPa	988.14 ± 0.5
298.15 K, 15000 kPa	991.93 ± 0.5
298.15 K, 20000 kPa	995.59 ± 0.5
298.15 K, 25000 kPa	999.13 ± 0.5
298.15 K, 30000 kPa	1002.53 ± 0.5
298.15 K, 35000 kPa	1005.84 ± 0.5
298.15 K, 40000 kPa	1009.04 ± 0.5
298.15 K, 45000 kPa	1012.17 ± 0.5
298.15 K, 50000 kPa	1015.2 ± 0.5
298.15 K, 55000 kPa	1018.14 ± 0.51
298.15 K, 60000 kPa	1021.01 ± 0.51
298.15 K, 65000 kPa	1023.8 ± 0.51
303.15 K, 100 kPa	975.1 ± 0.5
303.15 K, 2000 kPa	976.72 ± 0.5
303.15 K, 5000 kPa	979.23 ± 0.5
303.15 K, 7000 kPa	980.88 ± 0.5
303.15 K, 10000 kPa	983.27 ± 0.5
303.15 K, 15000 kPa	987.17 ± 0.5
303.15 K, 20000 kPa	990.9 ± 0.5
303.15 K, 25000 kPa	994.52 ± 0.5
303.15 K, 30000 kPa	998.02 ± 0.5
303.15 K, 35000 kPa	1001.4 ± 0.5
303.15 K, 40000 kPa	1004.69 ± 0.5
303.15 K, 45000 kPa	1007.85 ± 0.5
303.15 K, 50000 kPa	1010.94 ± 0.5
303.15 K, 55000 kPa	1013.93 ± 0.5
303.15 K, 60000 kPa	1016.85 ± 0.51
303.15 K, 65000 kPa	1019.68 ± 0.51
308.15 K, 100 kPa	970 ± 0.5
308.15 K, 2000 kPa	971.66 ± 0.5
308.15 K, 5000 kPa	974.22 ± 0.5
308.15 K, 7000 kPa	975.91 ± 0.5
308.15 K, 10000 kPa	978.38 ± 0.5
308.15 K, 15000 kPa	982.36 ± 0.5
308.15 K, 20000 kPa	986.2 ± 0.5
308.15 K, 25000 kPa	989.91 ± 0.5
308.15 K, 30000 kPa	993.47 ± 0.5
308.15 K, 35000 kPa	996.93 ± 0.5
308.15 K, 40000 kPa	1000.28 ± 0.5
308.15 K, 45000 kPa	1003.53 ± 0.5
308.15 K, 50000 kPa	1006.66 ± 0.5
308.15 K, 55000 kPa	1009.75 ± 0.5
308.15 K, 60000 kPa	1012.72 ± 0.5
308.15 K, 65000 kPa	1015.59 ± 0.51
313.15 K, 100 kPa	964.84 ± 0.5
313.15 K, 2000 kPa	966.6 ± 0.5
313.15 K, 5000 kPa	969.22 ± 0.5
313.15 K, 7000 kPa	970.97 ± 0.5
313.15 K, 10000 kPa	973.5 ± 0.5
313.15 K, 15000 kPa	977.58 ± 0.5
313.15 K, 20000 kPa	981.52 ± 0.5
313.15 K, 25000 kPa	985.31 ± 0.5
313.15 K, 30000 kPa	988.97 ± 0.5
313.15 K, 35000 kPa	992.49 ± 0.5
313.15 K, 40000 kPa	995.92 ± 0.5
313.15 K, 45000 kPa	999.23 ± 0.5
313.15 K, 50000 kPa	1002.44 ± 0.5
313.15 K, 55000 kPa	1005.56 ± 0.5
313.15 K, 60000 kPa	1008.58 ± 0.5
313.15 K, 65000 kPa	1011.53 ± 0.5
318.15 K, 100 kPa	959.75 ± 0.5
318.15 K, 2000 kPa	961.52 ± 0.5
318.15 K, 5000 kPa	964.24 ± 0.5
318.15 K, 7000 kPa	966 ± 0.5
318.15 K, 10000 kPa	968.6 ± 0.5
318.15 K, 15000 kPa	972.8 ± 0.5
318.15 K, 20000 kPa	976.83 ± 0.5
318.15 K, 25000 kPa	980.72 ± 0.5
318.15 K, 30000 kPa	984.44 ± 0.5
318.15 K, 35000 kPa	988.06 ± 0.5
318.15 K, 40000 kPa	991.55 ± 0.5
318.15 K, 45000 kPa	994.93 ± 0.5
318.15 K, 50000 kPa	998.2 ± 0.5
318.15 K, 55000 kPa	1001.39 ± 0.5
318.15 K, 60000 kPa	1004.46 ± 0.5
318.15 K, 65000 kPa	1007.46 ± 0.5
323.15 K, 100 kPa	954.64 ± 0.5
323.15 K, 2000 kPa	956.46 ± 0.5
323.15 K, 5000 kPa	959.26 ± 0.5
323.15 K, 7000 kPa	961.09 ± 0.5
323.15 K, 10000 kPa	963.75 ± 0.5
323.15 K, 15000 kPa	968.05 ± 0.5
323.15 K, 20000 kPa	972.19 ± 0.5
323.15 K, 25000 kPa	976.16 ± 0.5
323.15 K, 30000 kPa	979.99 ± 0.5
323.15 K, 35000 kPa	983.67 ± 0.5
323.15 K, 40000 kPa	987.24 ± 0.5
323.15 K, 45000 kPa	990.69 ± 0.5
323.15 K, 50000 kPa	994.03 ± 0.5
323.15 K, 55000 kPa	997.27 ± 0.5
323.15 K, 60000 kPa	1000.41 ± 0.5
323.15 K, 65000 kPa	1003.46 ± 0.5
328.15 K, 100 kPa	949.46 ± 0.5
328.15 K, 2000 kPa	951.34 ± 0.5
328.15 K, 5000 kPa	954.21 ± 0.5
328.15 K, 7000 kPa	956.1 ± 0.5
328.15 K, 10000 kPa	958.85 ± 0.5
328.15 K, 15000 kPa	963.27 ± 0.5
328.15 K, 20000 kPa	967.5 ± 0.5
328.15 K, 25000 kPa	971.57 ± 0.5
328.15 K, 30000 kPa	975.49 ± 0.5
328.15 K, 35000 kPa	979.25 ± 0.5
328.15 K, 40000 kPa	982.9 ± 0.5
328.15 K, 45000 kPa	986.42 ± 0.5
328.15 K, 50000 kPa	989.84 ± 0.5
328.15 K, 55000 kPa	993.13 ± 0.5
328.15 K, 60000 kPa	996.35 ± 0.5
328.15 K, 65000 kPa	999.44 ± 0.5
333.15 K, 100 kPa	944.28 ± 0.5
333.15 K, 2000 kPa	946.2 ± 0.5
333.15 K, 5000 kPa	949.16 ± 0.5
333.15 K, 7000 kPa	951.09 ± 0.5
333.15 K, 10000 kPa	953.92 ± 0.5
333.15 K, 15000 kPa	958.46 ± 0.5
333.15 K, 20000 kPa	962.79 ± 0.51
333.15 K, 25000 kPa	966.97 ± 0.51
333.15 K, 30000 kPa	970.97 ± 0.51
333.15 K, 35000 kPa	974.83 ± 0.51
333.15 K, 40000 kPa	978.55 ± 0.5
333.15 K, 45000 kPa	982.15 ± 0.5
333.15 K, 50000 kPa	985.62 ± 0.5
333.15 K, 55000 kPa	988.98 ± 0.5
333.15 K, 60000 kPa	992.25 ± 0.5
333.15 K, 65000 kPa	995.41 ± 0.5
338.15 K, 100 kPa	939.09 ± 0.5
338.15 K, 2000 kPa	941.08 ± 0.5
338.15 K, 5000 kPa	944.14 ± 0.5
338.15 K, 7000 kPa	946.13 ± 0.5
338.15 K, 10000 kPa	949.02 ± 0.5
338.15 K, 15000 kPa	953.67 ± 0.51
338.15 K, 20000 kPa	958.14 ± 0.51
338.15 K, 25000 kPa	962.41 ± 0.51
338.15 K, 30000 kPa	966.51 ± 0.51
338.15 K, 35000 kPa	970.46 ± 0.51
338.15 K, 40000 kPa	974.25 ± 0.51
338.15 K, 45000 kPa	977.91 ± 0.51
338.15 K, 50000 kPa	981.46 ± 0.51
338.15 K, 55000 kPa	984.88 ± 0.5
338.15 K, 60000 kPa	988.2 ± 0.5
338.15 K, 65000 kPa	991.43 ± 0.5
